Reference: patent US20220089602A1, “COMPOUNDS THAT INDUCE FERROPTIC CELL DEATH” (The Board of Trustees of the University of Illinois, priority 2019, published 2022)

Assays:
[1] = In vitro glutathione assay (LC-MS); type: physicochemical; conditions: 100 μM compound, 5 mM glutathione, PBS, 37° C.
Procedure: To an eppendorf tube added, 245 μL of 1×PBS, 5 μL of 10 mM DMSO stock of ferroptocide or P23 and 250 μL of reduced GSH (5 mM final concentration). Reactions were vortexed briefly and incubated at 37° C. Adduct formation was monitored at the indicated time points (0, 0.5, 1, 2, 3, 24 hr) by mixing an aliquot of 50 μL from the reaction mixture with 50 μL of MeOH before LC/MS analysis.

[2] = tested on: 4T1 triple negative breast cancer cells; assay: 4T1 syngeneic subcutaneous tumor model, immunocompetent mice; type: in vivo; conditions: 50 mg/kg i.p., twice a week, five doses, Balb/c
Procedure: The protocol was approved by the IACUC at the University of Illinois at Urbana-Champaign (Protocol Number: 17192). 9-week old female Balb/C or SCID mice (Charles River) were lightly sedated with i.p. xylazine/ketamine/saline solution. Following sedation, 4T1 murine breast cancer cells suspended in chilled HBSS (100 μL of 4×10^6 cells/mL) were injected subcutaneously into the right flank of shaved and sedated mice using an insulin syringe. On day 8 after inoculation, mice were randomized with 7 mice per group for vehicle or ferroptocide treatment. Vehicle (PEG400) or ferroptocide (50 mg/kg) was administered intraperitoneally as a PEG400 solution twice a week for 5 times. Tumor measurements were performed every 3 or 4 days using a caliper and tumor volume was calculated using the equation (0.5×l×w^2). On day 23 after the 4T1 cells inoculation, mice were sacrificed. Tumors were then surgically removed, and their mass was measured.

[3] = target: T1, purified human thioredoxin (Homo sapiens, UniProt P10599); assay: Thioredoxin activity assay, biochemical (in vitro); conditions: 30 min, versus PMX464 and PX-12
T1 construct: purchased Cayman Chemical Fluorescent Thioredoxin Activity Assay kit #20039
T1 sequence (P10599 whole entry): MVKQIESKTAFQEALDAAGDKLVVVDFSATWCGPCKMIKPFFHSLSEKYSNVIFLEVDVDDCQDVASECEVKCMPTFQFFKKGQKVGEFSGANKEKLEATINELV
Procedure: HCT 116 cells (1×10^6 cells/flask) were treated with DMSO, 10 μM ferroptocide, 50 μM PMX464, or 50 μM PX-12 for 30 min. Cells were harvested by centrifugation, resuspended in the assay buffer and lysed via sonication. For each condition, 20 μg of cell lysate was used to measure the activity thioredoxin activity following manufacturer' protocol (Cayman Chemical, Fluorescent Thioredoxin Activity Assay kit #20039) in a 96-well black-walled plate. For in vitro studies, human thioredoxin (10 μL of 0.2 μM solution) was used in addition to thioredoxin reductase (10 μL of 1.0 μM solution), 1 μl of DMSO, ferroptocide, […], or PX-12 at indicated concentrations, 5 μL of NADPH (diluted according to manufacturer's instructions), and assay buffer to a final volume of 75 μL. The plate was incubated at 37° C. for 30 min followed by immediate addition of 20 μL fluorescent substrate per each well (diluted as instructed in the assay kit). Fluorescence was monitored over 1 hr at 520 nm after excitation at 480 nm in a SpectraMax M3 (Molecular Devices) instrument at 37° C.

[4] = tested on: ES-2 cells; assay: Confocal microscopy competition with fluorescent analogue P30; type: cell-based; conditions: pretreatment at 3× IC50 for 30 min, then P30 (5 μM)
Procedure: ES-2 cells (3×10^5 cell) were attached overnight in […] petri dish plates containing 2 ml of RPMI media. Prior to imaging, cells were stained for 30 min with Mitotracker Red CMXRoss at 100 nM final concentration. Upon media replacement, samples were pre-treated with 3× IC50 of ferroptocide, P27, L1, QQ1 for 30 min followed by treatment with 5 μM P30 for an additional 30 min and a PBS wash. PBS or phenol free media was added to each dish and cells were stained with Hoechst 33342 (1 μg/mL).

[5] = tested on: ES-2 cells; assay: Cellular ROS production (carboxy-H2DCFDA); type: cell-based; conditions: 1 hr
Procedure: (§1) ES-2 and HCT 116 cells (3×10^5 cells/mL) were plated in 6-well plates. Cells were treated with DMSO, ferroptocide at the indicated concentrations, Etoposide (100 μM), TBHP (100 μM) for 1 hr and 1.5 hr respectively. Cells were washed with HBSS and incubated in the dark for 25 min with 25 μM carboxy-H2DCFDA probe. Cells were then washed 3× with HBSS and harvested at 1000×g, 3 min. After resuspension in 500 μl HBSS buffer, samples were subjected to flow cytometry to record ten thousand events per sample in FL1 channel in BD LSR II Flow Cytometer (BD Bioscience). FCS express V6 De Novo software was used to generate the histograms.

[6] = tested on: HCT 116 cells; assay: Cellular ROS production (carboxy-H2DCFDA); type: cell-based; conditions: 1.5 hr
Procedure: as §1

[7] = tested on: ES-2 cells; assay: Mitochondrial ROS production (MitoSOX Red); type: cell-based; conditions: 1 hr
Procedure: ES-2 cells (1×10^5 cells/mL) were plated in 12-well plates and allowed to attach overnight. Cells were treated for 1 hr with DMSO, 10 and 25 μM ferroptocide, 5 μM IB-DNQ, and 10 μM rotenone. Cells were washed with HBSS and incubated in the dark for 10 min with 5 μM MitoSOX Red probe. Cells were then washed 2× with HBSS and harvested at 1000×g, 3 min. After resuspension in 500 μl HBSS buffer, samples were analyzed with flow cytometry to record ten thousand events per sample in the PE channel in BD LSR II Flow Cytometer (BD Bioscience). FCS express V6 De Novo software was used to generate the histogram.

C[C@@H]1CC[C@@]23C[C@H](O)C(=O)[C@@]2(O)[C@]1(C)[C@H](OC(=O)CCl)C[C@@H](C1=CCn2c(=O)n(-c4ccccc4)c(=O)n2C1)[C@@H]3C [Compound P18, ferroptocide]
reactivity with excess glutathione (in words) [1]: reacts slowly
Compound remaining (%) ([1]; 0.5 hr): 95.1%
GSH-Ferroptocide adduct (%) ([1]; 0.5 hr): 4.9%
Compound remaining (%) ([1]; 1 hr): 81.8%
GSH-Ferroptocide adduct (%) ([1]; 1 hr): 18.2%
GSH-Ferroptocide adduct (%) ([1]; 2 hr): 33.2%
Compound remaining (%) ([1]; 2 hr, listed as Ferroptocide): 66.8%
Compound remaining (%) ([1]; 2 hr, listed as ferroptocide): 67%
Compound remaining (%) ([1]; 3 hr): 61.9%
GSH-Ferroptocide adduct (%) ([1]; 3 hr): 38.1%
Compound remaining (%) ([1]; 24 hr): 27.5%
GSH-Ferroptocide adduct (%) ([1]; 24 hr): 72.5%
effect on subcutaneous 4T1 tumor growth (in words) [2]: inhibits subcutaneous 4T1 tumor growth
tumor growth retardation (tumor volume) ([2]; compared to vehicle): 40%
inhibition of purified thioredoxin, dose-response [3]: more potent thioredoxin inhibitor than PMX464 and PX-12
competition of P30 staining [4]: competed away
ROS production [5]: Dose-dependent ROS production
ROS production [6]: Dose-dependent ROS production
mitochondrial ROS [7]: increase of mitochondrial ROS
